Measured values from ChEMBL document CHEMBL1133258, “Synthesis and evaluation of quinoxalinones as HIV-1 reverse transcriptase inhibitors” (Bioorg Med Chem Lett, 2000).

How the values were obtained:
[1] = molecular target: Human immunodeficiency virus type 1 reverse transcriptase (Human immunodeficiency virus 1, UniProt Q72547); assay: Inhibitory concentration for 50% inhibition of HIV-1 reverse transcriptase
[2] = molecular target: Human immunodeficiency virus type 1 reverse transcriptase (Human immunodeficiency virus 1) (UniProt Q72547)
Description: Inhibitory concentration for 90% inhibition of HIV-1 reverse transcriptase, whole cell based antiviral assay

In the case of CC(C)OC(=O)N1c2ccccc2NC(=O)C1(C#CC1CC1)C(F)(F)F (stereo unspecified), the IC50 [1] is reported as 108 nM and the IC90 [2] is reported as 15 nM.
In the case of COc1ccc2c(c1)N(CC1CC1)C(C#CC1CC1)(C(F)(F)F)C(=O)N2 (stereo unspecified), the IC50 [1] is reported as 109 nM and the IC90 [2] is reported as 19 nM.
Compound O=C1Nc2ccccc2N(Cc2ccccc2)C1(C#CC1CC1)C(F)(F)F (stereo unspecified) has an IC50 [1] of 1820 nM and an IC90 [2] of 21 nM.
CCOC(=O)N1c2ccccc2NC(=O)C1(C#CC1CC1)C(F)(F)F (stereo in doubt; 6m) [listing 1 of 2 here] was tested, and the IC50 [1] was 118 nM.
Work on C=C(C)OC(=O)N1c2cc(F)ccc2NC(=O)C1(C#CC1CC1)C(F)(F)F (stereo unspecified) yielded an IC50 [1] of 183 nM and an IC90 [2] of 8 nM.
For CCOC(=O)N1c2ccccc2NC(=O)C1(C#CC1CC1)C(F)(F)F (stereo in doubt) [listing 1 of 2 here], the IC50 [1] was 45 nM.
With O=C1Nc2ccc(Cl)cc2N(CC2CC2)C1(C#CC1CC1)C(F)(F)F (stereo unspecified) the IC50 [1] was 329 nM and the IC90 [2] was 27 nM.
With C#CCN1c2ccccc2NC(=O)C1(C#CC1CC1)C(F)(F)F (stereo unspecified) the IC50 [1] was 1810 nM and the IC90 [2] was 53 nM.
CCOC(=O)N1c2cc(Cl)ccc2NC(=O)C1(C#CC1CC1)C(F)(F)F (stereo unspecified) was tested, and the IC50 [1] was 127 nM and the IC90 [2] was 11 nM.
C=CCN1c2cc(F)ccc2NC(=O)C1(C#CC1CC1)C(F)(F)F (stereo unspecified) was tested, and the IC50 [1] was 124 nM and the IC90 [2] was 21 nM.
CC[C@H]1C(=O)Nc2ccc(F)cc2N1C(=O)OC(C)C [OPAVIRALINE] gave an IC50 [1] of 179 nM and an IC90 [2] of 11 nM.
CCCCOC(=O)N1c2ccccc2NC(=O)C1(C#CC1CC1)C(F)(F)F (stereo unspecified) was tested, and the IC50 [1] was 672 nM and the IC90 [2] was 105 nM.
Compound CC(C)CN1c2cc(Cl)ccc2NC(=O)C1(C#CC1CC1)C(F)(F)F (stereo unspecified) has an IC50 [1] of 404 nM and an IC90 [2] of 52 nM.
For C=CCN1c2cc(OC)ccc2NC(=O)C1(C#CC1CC1)C(F)(F)F (stereo unspecified), the IC50 [1] was 123 nM and the IC90 [2] was 29 nM.
For CCS(=O)(=O)N1c2ccccc2NC(=O)C1(C#CC1CC1)C(F)(F)F (stereo unspecified), the IC50 [1] was > 5000 nM and the IC90 [2] was > 1000 nM.
In the case of CC(C)OC(=O)N1c2cc(F)ccc2NC(=O)C1(C#CC1CC1)C(F)(F)F (stereo unspecified), the IC50 [1] is reported as 130 nM and the IC90 [2] is reported as 9 nM.
With CCOC(=O)N1c2ccccc2NC(=O)C1(C#CC1CC1)C(F)(F)F (stereo in doubt) [listing 2 of 2 here] the IC90 [2] was 4.8 nM.
In the case of CCOC(=O)N1c2cc(F)ccc2NC(=O)C1(C#CC1CC1)C(F)(F)F (stereo unspecified), the IC50 [1] is reported as 121 nM and the IC90 [2] is reported as 8 nM.
O=C1Nc2ccccc2N(CC2CC2)C1(C#CC1CC1)C(F)(F)F (stereo in doubt; 6a) [listing 1 of 2 here] showed an IC90 [2] of 17 nM.
In the case of COC(=O)N1c2ccccc2NC(=O)C1(C#CC1CC1)C(F)(F)F (stereo unspecified), the IC50 [1] is reported as 504 nM and the IC90 [2] is reported as 44 nM.
In the case of O=C1Nc2ccccc2N(CC2CC2)C1(C#CC1CC1)C(F)(F)F (stereo in doubt; 6a) [listing 2 of 2 here], the IC50 [1] is reported as 253 nM.
With O=C(c1ccccc1)N1c2ccccc2NC(=O)C1(C#CC1CC1)C(F)(F)F (stereo unspecified) the IC50 [1] was > 5000 nM and the IC90 [2] was > 1000 nM.
Compound CC(C)C(I)N1c2ccccc2NC(=O)C1(C#CC1CC1)C(F)(F)F (stereo unspecified) has an IC50 [1] of 160 nM and an IC90 [2] of 19 nM.
For CCCS(=O)(=O)N1c2ccccc2NC(=O)C1(C#CC1CC1)C(F)(F)F (stereo unspecified), the IC50 [1] was > 5000 nM and the IC90 [2] was > 1000 nM.
CC(C)COC(=O)N1c2ccccc2NC(=O)C1(C#CC1CC1)C(F)(F)F (stereo unspecified) was tested, and the IC50 [1] was 1140 nM and the IC90 [2] was 158 nM.
CCOC(=O)N1c2ccccc2NC(=O)C1(C#CC1CC1)C(F)(F)F (stereo in doubt; 6m) [listing 2 of 2 here] gave an IC90 [2] of 9 nM.
Work on O=C1Nc2ccccc2N(CC2CC2)C1(C#CC1CC1)C(F)(F)F (stereo in doubt; 6z) [listing 1 of 2 here] yielded an IC50 [1] of 127 nM.
Compound C=CCOC(=O)N1c2ccccc2NC(=O)C1(C#CC1CC1)C(F)(F)F (stereo unspecified) has an IC50 [1] of 147 nM and an IC90 [2] of 30 nM.
With O=C1Nc2ccccc2N(CC2CC2)C1(C#CC1CC1)C(F)(F)F (stereo in doubt; 6z) [listing 2 of 2 here] the IC90 [2] was 11 nM.
In the case of C=C(C)OC(=O)N1c2ccccc2NC(=O)C1(C#CC1CC1)C(F)(F)F (stereo unspecified), the IC50 [1] is reported as 169 nM and the IC90 [2] is reported as 11 nM.
Work on C=CCN1c2cc(Cl)ccc2NC(=O)C1(C#CC1CC1)C(F)(F)F (stereo unspecified) yielded an IC50 [1] of 650 nM and an IC90 [2] of 85 nM.
Compound CC(C)OC(=O)N1c2cc(Cl)ccc2NC(=O)C1(C#CC1CC1)C(F)(F)F (stereo unspecified) has an IC50 [1] of 160 nM and an IC90 [2] of 19 nM.
In the case of O=C1Nc2ccccc2N(CCC2CC2)C1(C#CC1CC1)C(F)(F)F (stereo unspecified), the IC50 [1] is reported as 340 nM and the IC90 [2] is reported as 32 nM.
C=C(C)OC(=O)N1c2cc(Cl)ccc2NC(=O)C1(C#CC1CC1)C(F)(F)F (stereo unspecified) gave an IC50 [1] of 315 nM and an IC90 [2] of 15 nM.
With O=C1Nc2ccc(F)cc2N(CC2CC2)C1(C#CC1CC1)C(F)(F)F (stereo unspecified) the IC50 [1] was 263 nM and the IC90 [2] was 23 nM.
For CC(C)S(=O)(=O)N1c2ccccc2NC(=O)C1(C#CC1CC1)C(F)(F)F (stereo unspecified), the IC50 [1] was > 5000 nM and the IC90 [2] was > 1000 nM.
Compound C=CCN1c2ccccc2NC(=O)C1(C#CC1CC1)C(F)(F)F (stereo unspecified) has an IC50 [1] of 601 nM and an IC90 [2] of 22 nM.
